# Test results reported in patent US20230053540A1, “TREATMENT OF LIVER INJURY” (Massachusetts Institute of Technology, priority 2019, published 2023).
# System: hepatocytes
# Experiment: Seq-Well scRNA-Seq of hepatocytes after APAP overdose (signature scores, DEG vs untreated)
# Format: in vivo, mouse
# [1] = cluster A6, DEG between treatment (APAP and PH)
smiles,measurement,setting,value
"CC(=O)Nc1ccc(O)cc1 [APAP, acetaminophen]",avg_logFC Tmsb4x,[1],0.7911
same,avg_logFC Tnfrsf1a,[1],0.5681
same,avg_logFC Tnfrsf12a,[1],1.105
same,avg_logFC Tns1,[1],0.4001
same,avg_logFC Tra2a,[1],0.7081
same,avg_logFC Trp53inp1,[1],0.8829
same,avg_logFC Tsc22d2,[1],0.3629
same,avg_logFC Tsku,[1],0.3332
same,avg_logFC Tsr1,[1],0.3392
same,avg_logFC Tubb2a,[1],0.786
same,avg_logFC Tubb6,[1],0.5715
same,avg_logFC Txnrd1,[1],1.375
same,avg_logFC Ugdh,[1],0.6085
same,avg_logFC Wbp1l,[1],0.3897
same,avg_logFC Wdr43,[1],0.3083
same,avg_logFC Xbp1,[1],0.5694
same,avg_logFC Ywhag,[1],0.5132
same,avg_logFC Zyx,[1],0.2799
same,avg_logFC mmu-mir-6240,[1],1.032
same,avg_logFC n-R5-8s1,[1],0.4005
same,avg_logFC Acly,"cluster A24 (APAP, 24 h)",0.3005
same,avg_logFC Arcn1,"cluster A24 (APAP, 24 h)",0.2594
same,avg_logFC Cltc,"cluster A24 (APAP, 24 h)",0.2853
same,avg_logFC Cmah,"cluster A24 (APAP, 24 h)",0.2958
same,avg_logFC Ctnnb1,"cluster A24 (APAP, 24 h)",0.25
same,avg_logFC Dnajb11,"cluster A24 (APAP, 24 h)",0.2998
same,avg_logFC Dnajc12,"cluster A24 (APAP, 24 h)",0.2565
same,avg_logFC Etnk1,"cluster A24 (APAP, 24 h)",0.2761
same,avg_logFC Fndc3b,"cluster A24 (APAP, 24 h)",0.2502
same,avg_logFC Gm26917,"cluster A24 (APAP, 24 h)",0.5819
same,avg_logFC Magt1,"cluster A24 (APAP, 24 h)",0.253
same,avg_logFC Nab1,"cluster A24 (APAP, 24 h)",0.2534
same,avg_logFC Nars,"cluster A24 (APAP, 24 h)",0.2657
same,avg_logFC Nedd4,"cluster A24 (APAP, 24 h)",0.2553
same,avg_logFC Ptprf,"cluster A24 (APAP, 24 h)",0.2512
same,avg_logFC Rab1,"cluster A24 (APAP, 24 h)",0.2582
same,avg_logFC Sec61b,"cluster A24 (APAP, 24 h)",0.2648
same,avg_logFC Srebf1,"cluster A24 (APAP, 24 h)",0.2874
same,avg_logFC Usp4,"cluster A24 (APAP, 24 h)",0.2727
same,avg_logFC Usp9x,"cluster A24 (APAP, 24 h)",0.2853
same,avg_logFC 1-Mar,"cluster A48 (APAP, 48 h)",0.2986
same,avg_logFC 0610005C13Rik,"cluster A48 (APAP, 48 h)",0.3977
same,avg_logFC 1600002H07Rik,"cluster A48 (APAP, 48 h)",0.2939
same,avg_logFC Abcb4,"cluster A48 (APAP, 48 h)",0.4702
same,avg_logFC Abcc3,"cluster A48 (APAP, 48 h)",0.4075
same,avg_logFC Abcd2,"cluster A48 (APAP, 48 h)",0.2906
same,avg_logFC Abhd14b,"cluster A48 (APAP, 48 h)",0.4104
same,avg_logFC Acadl1,"cluster A48 (APAP, 48 h)",0.3879
same,avg_logFC Acat1,"cluster A48 (APAP, 48 h)",0.3773
same,avg_logFC Acbd5,"cluster A48 (APAP, 48 h)",0.3517
same,avg_logFC Aco2,"cluster A48 (APAP, 48 h)",0.3054
same,avg_logFC Acot12,"cluster A48 (APAP, 48 h)",0.3091
same,avg_logFC Acsl1,"cluster A48 (APAP, 48 h)",0.3668
same,avg_logFC Agt,"cluster A48 (APAP, 48 h)",0.5339
same,avg_logFC Ahcy,"cluster A48 (APAP, 48 h)",0.4739
same,avg_logFC Ahsg,"cluster A48 (APAP, 48 h)",0.2506
same,avg_logFC Akr1c19,"cluster A48 (APAP, 48 h)",0.3705
same,avg_logFC Aldh9a1,"cluster A48 (APAP, 48 h)",0.4147
same,avg_logFC Aldoa,"cluster A48 (APAP, 48 h)",0.2635
same,avg_logFC Aldob,"cluster A48 (APAP, 48 h)",0.3758
same,avg_logFC Amy1,"cluster A48 (APAP, 48 h)",0.495
same,avg_logFC Anapc13,"cluster A48 (APAP, 48 h)",0.2762
same,avg_logFC Angptl3,"cluster A48 (APAP, 48 h)",0.7705
same,avg_logFC Apoa5,"cluster A48 (APAP, 48 h)",0.4366
same,avg_logFC Apoc1,"cluster A48 (APAP, 48 h)",0.3638
same,avg_logFC Apoc2,"cluster A48 (APAP, 48 h)",0.8142
same,avg_logFC Apoc3,"cluster A48 (APAP, 48 h)",0.3634
same,avg_logFC Apoc4,"cluster A48 (APAP, 48 h)",0.5053
same,avg_logFC Apoe,"cluster A48 (APAP, 48 h)",0.6102
same,avg_logFC Apoh,"cluster A48 (APAP, 48 h)",0.5359
same,avg_logFC Armc1,"cluster A48 (APAP, 48 h)",0.2587
same,avg_logFC Asgr2,"cluster A48 (APAP, 48 h)",0.3431
same,avg_logFC Aspdh,"cluster A48 (APAP, 48 h)",0.326
same,avg_logFC Atf5,"cluster A48 (APAP, 48 h)",0.3544
same,avg_logFC Atp5b,"cluster A48 (APAP, 48 h)",0.3451
same,avg_logFC Atp5g3,"cluster A48 (APAP, 48 h)",0.3996
same,avg_logFC Atp5j,"cluster A48 (APAP, 48 h)",0.4575
same,avg_logFC Atp5k,"cluster A48 (APAP, 48 h)",0.4074
same,avg_logFC Atp5h,"cluster A48 (APAP, 48 h)",0.7312
same,avg_logFC Azgp1,"cluster A48 (APAP, 48 h)",0.2836
same,avg_logFC Bfar,"cluster A48 (APAP, 48 h)",0.3018
same,avg_logFC Bnip3,"cluster A48 (APAP, 48 h)",0.5262
same,avg_logFC Brap,"cluster A48 (APAP, 48 h)",0.3395
same,avg_logFC Camk2n1,"cluster A48 (APAP, 48 h)",0.2578
same,avg_logFC Cd1d1,"cluster A48 (APAP, 48 h)",0.3518
same,avg_logFC Cdo1,"cluster A48 (APAP, 48 h)",0.4301
same,avg_logFC Cebpb,"cluster A48 (APAP, 48 h)",0.4231
same,avg_logFC Ces1b,"cluster A48 (APAP, 48 h)",0.5308
same,avg_logFC Ces1c,"cluster A48 (APAP, 48 h)",0.5861
same,avg_logFC Ces1f,"cluster A48 (APAP, 48 h)",0.3532
same,avg_logFC Ces2a,"cluster A48 (APAP, 48 h)",0.3404
same,avg_logFC Ces1d,"cluster A48 (APAP, 48 h)",0.3324
same,avg_logFC Chchd10,"cluster A48 (APAP, 48 h)",0.814
same,avg_logFC Cox5a,"cluster A48 (APAP, 48 h)",0.4303
same,avg_logFC Cox8a,"cluster A48 (APAP, 48 h)",0.5202
same,avg_logFC Cp,"cluster A48 (APAP, 48 h)",0.2715
same,avg_logFC Cpt2,"cluster A48 (APAP, 48 h)",0.3214
same,avg_logFC Creb3l3,"cluster A48 (APAP, 48 h)",0.3228
same,avg_logFC Creg1,"cluster A48 (APAP, 48 h)",0.418
same,avg_logFC Ctsd,"cluster A48 (APAP, 48 h)",0.3237
same,avg_logFC Ctsh,"cluster A48 (APAP, 48 h)",0.4649
